The source of these data is patent US20240342121A1, “THE USE OF BETA-HYDROXYBUTYRATES FOR THE TREATMENT OR PREVENTION OF ANEURYSMS AND DISSECTIONS” (priority 2021, published 2024).

Entries after “also recorded” stand apart in the source; their conditions may differ.

Assay [1] concerns CaCl2-induced AAA. In words: CaCl2-induced AAA animal model, post-treatment. It counts as in vivo, mouse. How it is done: FIGS. 5A-5J. (a) Representative image of aorta which developed CaCl2)-induced AAA, and post-treated with KD, KE, βHB, s-βHB, or ABT-737. KD is provided to mice for 4 weeks, KE is administrated with drinking water, βHB, s-βHB or ABT-737 are IP injected for 2 weeks with 48h intervals. (b) Incidence of AAA by CaCl2) treatment and proportion of mice recovered from the AAA after post-treatment of KD, KE, βHB and s-βHB for 2 weeks. (c) Time-dependent observation of inner diameter after CaCl2) treatment and post-treatment of KD or KE (28˜56 days after surgery). (d) Comparison of ultrasound images of CaCl2)-induced AAA to the identical aorta post-treated with βHB for 2 weeks. (e) H&E staining of aorta from the mice developed with CaCl2)-induced AAA, and post-treated with KD, KE, βHB, and s-βHB. (f) SA β-Gal activity assay on aorta which developed CaCl2)-induced AAA, and post-treated with KD, KE, βHB, s-βHB, or ABT-737. (g) Quantitation of senescent area on aorta developed with CaCl2)-induced AAA, and post-treated with KD, KE, βHB, s-βHB. (h) Verhoeff Van Gieson/EVG staining of abdominal aorta developed with CaCl2)-induced AAA, post-treated with KD, KE, βHB and s-βHB. (i) Average number of elastic fibers on abdominal aorta presented at FIG. 5H. (j) Measurement of Pulse Wave Velocity (PWV) on CaCl2)-infused mice with post-treatment of KD, KE, βHB, and s-βHB.
To confirm the possibility that the therapeutic effect of βHB on AAA is not only applied to AII-induced AAA, the CaCl2)-induced AAA animal model was also examined as well (FIG. 5A).
To further validate the therapeutic efficacy of s-βHB on aneurysms, we used a CaCl2-induced AAA animal model as well as an angiotensin II infusion model. […] Two-way ANOVA, s-βHB vs βHB, #P<0.01, n=10. Since the elimination of senescent SMCs is critical for the recovery of AAA, we investigated that s-βHB is also effective to remove senescent cells in CaCl2)-induced aneurysms. […] Student's T-test for s-βHB vs βHB, ^#P<0.05, n=8.

Assay [2] has as its system lysine β-hydroxybutyrylation (KβHB). In words: Immunoblotting of lysine β-hydroxybutyrylation (KβHB) in SMCs. As to conditions: FIG. 15A. It counts as cell-based. From the text:
FIGS. 15A-15B show immunoblotting of lysine β-hydroxybutyrylation (KβHB) on whole cell lysate (WCL) and fractionated lysate. (b) Immunofluorescent staining of SMA, KβHB, and DAPI on abdominal aorta.
Since epigenetic regulation directly affects the activity of transcriptional factors, such as Oct4, we evaluated if βHB is related to histone remodeling. βHB is a substrate of acyltransferase resulting in β-hydroxybutyrylation, a unique posttranslational modification that controls protein activity or gene expression. We hypothesize that β-hydroxybutyrylation on histone induces histone remodeling facilitating cellular reprogramming. To determine that β-hydroxybutyrylation (KβHB) is observed in senescent SMCs or aneurysms, we applied a specific antibody detecting KβHB modified protein. […] Together, it is supposed that β-hydroxybutyryl histone triggers the reprogramming process of senescent SMCs by regulating Oct4, which is overexpressed in aneurysms.
Background: A western blot detects proteins with antibodies after separation by electrophoresis.

Turning to `C[C@@H](O)CC(=O)O` [βHB, (R)-3-Hydroxybutyrate], the “abnormal curvature on aortic wall (ultrasound)” value in assay [1] (FIG. 5D) was “repaired abnormal curvature on aortic wall”. Besides, the “recovery from CaCl2-induced AAA” value in assay [1] (FIGS. 5A and 5B) was “Effective recovery”. The “senescent cells, SA β-gal assay” value in assay [1] (FIGS. 5F and 5G) is “significantly reduced; also recorded: less effective than KD, KE and s-βHB”. The “elastic laminar / vascular integrity” value in assay [1] (FIGS. 5H and 5I) was “improved vascular integrity”. Besides, the “recovery rate of AAA” value in assay [1] (comparison between treatments, FIG. 5B) is “less effectiveness compared to s-βHB, KD, and KE treatment”. For the same compound, the AAA progression result in assay [1] (post-treatment after four weeks, FIG. 5C) is given as “inhibited AAA progression”. For the same compound, the “KβHB modified proteins, Western blot” value in assay [2] is “increases KβHB modified proteins”.
